This is an account of results in US12390437B2, “Itaconic acid derivatives and uses thereof intreating an inflammatory disease or a disease associated with an undesirable immune response” (Sitryx Therapeutics Limited, priority 2019, dated 2025).

The term IC50 denotes the concentration needed to halve the response being measured.

The subject of experiment [1] is IL-6 cytokine output from THP-1s. The experiment in a line: THP-1 AlphaLISA IL-6 cytokine assay. It counts as cell-based, human. As to conditions: Homo sapiens; PMA-differentiated THP-1 cells, LPS 24 hr then Nigericin 1 hour. As for the experimental part: Measuring Inhibitory Effects on IL-1β and IL-6 Cytokine Output from THP-1s
The cytokine inhibition profiles of compounds of formula (IW-1) were determined in a differentiated THP-1 cell assay. All assays were performed in RPMI-1640 growth medium (Gibco), supplemented with 10% fetal bovine serum (FBS; Gibco), 1% penicillin-streptomycin and 1% sodium pyruvate unless specified otherwise. The IL-1β and IL-6 cytokine inhibition assays were each run in a background of differentiated THP-1 cells as described below. All reagents described were from Sigma-Aldrich unless specified otherwise. Compounds were prepared as 10 mM DMSO stocks.
THP-1 cells were expanded as a suspension up to 80% confluence in appropriate growth medium. Cells were harvested, suspended, and treated with an appropriate concentration of phorbol 12-myristate 13-acetate (PMA) over a 72 hr period (37° C./5% CO2).
Following 72 hrs of THP-1 cell incubation, cellular medium was removed and replaced with fresh growth media containing 1% of FBS. Working concentrations of compounds were prepared separately in 10% FBS treated growth medium and pre-incubated with the cells for 30 minutes (37° C./5% CO2). Following the 30 minute compound pre-incubation, THP-1s were treated with an appropriate concentration of LPS and the THP-1s were subsequently incubated for a 24 hr period (37° C./5% CO2). An appropriate final concentration of Nigericin was then dispensed into the THP-1 plates and incubated for 1 hour (37° C./5% CO2) before THP-1 supernatants were harvested and collected in separate polypropylene 96-well holding plates.
Reagents from each of the IL-1β and IL-6 commercial kits (Perkin Elmer) were prepared and run according to the manufacturer's instructions. Subsequently, fluorescence signal detection in a microplate reader was measured (EnVision® Multilabel Reader, Perkin Elmer).
Percentage inhibition was calculated per cytokine by normalising the sample data to the high and low controls used within each plate (+/−LPS respectively). Percentage inhibition was then plotted against compound concentration and the 50% inhibitory concentration (IC50) was determined from the resultant concentration-response curve.
For orientation: Bead proximity is the source of the signal in Alpha formats.

In experiment [2] the test system is IL-1β cytokine output from THP-1s. The experiment in a line: THP-1 AlphaLISA IL-1β cytokine assay. It counts as cell-based, human. As to conditions: Homo sapiens, THP-1, PMA-differentiated THP-1 cells, LPS 24 hr then Nigericin 1 hour; read-out: IL-1β (IC50). The procedure, abridged:
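Cells are differentiated with PMA over 72 h, switched to 1% FBS medium and treated with compound for 30 min before LPS stimulation for 24 h. Nigericin is added for a final hour, and secreted cytokine is measured by AlphaLISA, with IC50 fitted from percent inhibition.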

Consider `C=C(CC(=O)OC1CCCCCCC1)C(=O)OCCS(C)(=O)=O` [Example 25, 4-cyclooctyl 1-(2-(methylsulfonyl)ethyl) 2-methylenesuccinate], for which the half-maximal inhibitory concentration (IC50) in experiment [1] and in experiment [2] was 1.9 µM each time.

For the compound `C=C(CC(=O)OCCCCCCCC)C(=O)OCC1(C#N)CC1` [Example 32, 1-((1-cyanocyclopropyl)methyl) 4-octyl 2-methylenesuccinate], the IC50 was 9.5 µM in experiment [1] and 18.9 µM in experiment [2].

In the case of `C=C(CC(=O)OC1CCCCC1)C(=O)OCCN1CCCC1=O` [Example 65, 4-cyclohexyl 1-(2-(2-oxopyrrolidin-1-yl)ethyl) 2-methylenesuccinate], the IC50 in experiment [1] amounted to 22.4 µM; in experiment [2] it was 22.6 µM.

As for `C=C(CC(=O)OCCOCCOCC)C(=O)OCCS(C)(=O)=O` [Example 36, 4-(2-(2-ethoxyethoxy)ethyl) 1-(2-(methylsulfonyl)ethyl) 2-methylenesuccinate], the figures for the 50% inhibitory concentration (IC50) in experiment [1] and in experiment [2] were 8.9 µM and 20.5 µM, respectively.

Regarding `C=C(CC(=O)OCCCCCCCC)C(=O)OCC(C)OC` (stereo not shown) [Example 33, 1-(2-methoxypropyl) 4-octyl 2-methylenesuccinate], the values for the IC50 in experiment [1] and in experiment [2] were 11.7 µM and 14.1 µM, respectively.

Take `C=C(CC(=O)OCCCCCCCC)C(=O)OCC(=O)N1CCN(C)CC1` [Example 107, 1-(2-(4-methylpiperazin-1-yl)-2-oxoethyl) 4-octyl 2-methylenesuccinate]: the IC50 in experiment [1] turned out to be 2.7 µM; in experiment [2] it was 10 µM.

Turning to `C=C(CC(=O)OC1CCCCC1)C(=O)OC1CS(=O)(=O)C1` [Example 60, 4-cyclohexyl 1-(1,1-dioxidothietan-3-yl) 2-methylenesuccinate], the figures for the half-inhibitory concentration (IC50) in experiment [1] and in experiment [2] were 1.4 µM and 1.9 µM, respectively.

With `C=C(CC(=O)OCCCCCCCC)C(=O)OC1CS(=O)(=O)C1` [Example 47, 1-(1,1-dioxidothietan-3-yl) 4-octyl 2-methylenesuccinate], the IC50 in experiment [1] came to 3 µM; in experiment [2] it was 3.3 µM.

`C=C(CC(=O)OC1CC2CCC1C2)C(=O)OCC(=O)O` (stereo not shown) [Example 115, 2-((4-(bicyclo[2.2.1]heptan-2-yloxy)-2-methylene-4-oxobutanoyl)oxy)acetic acid]: the IC50 came out at 36.3 µM in experiment [1] and 59.5 µM in experiment [2].

With `C=C(CC(=O)OCCCCCCCC)C(=O)OCCOC` [Example 29, 1-(2-methoxyethyl) 4-octyl 2-methylenesuccinate], the values for the 50% inhibitory concentration (IC50) in experiment [1] and in experiment [2] were 7.9 µM and 18.4 µM, respectively.

Turning to `C=C(CC(=O)OC1CCC1)C(=O)OCC(=O)O` [Example 116, 2-((4-cyclobutoxy-2-methylene-4-oxobutanoyl)oxy)acetic acid], the results for the IC50 in experiment [1] and in experiment [2] were 60.4 µM and 100 µM, respectively.

For `C=C(CC(=O)OC1CCCCC1)C(=O)OCC(C)(C)C(=O)O` [Example 117, 3-((4-(cyclohexyloxy)-2-methylene-4-oxobutanoyl)oxy)-2,2-dimethylpropanoic acid], the figures for the IC50 in experiment [1] and in experiment [2] were 43.9 µM and 100 µM, respectively.

Consider `C=C(CC(=O)O[C@H](C)CCCCCC)C(=O)OCCN1CCCC1=O` [Example 72, (R)-4-(octan-2-yl) 1-(2-(2-oxopyrrolidin-1-yl)ethyl) 2-methylenesuccinate], for which the IC50 is 8.2 µM in experiment [1] and 11.4 µM in experiment [2].

With `C=C(CC(=O)O[C@H](C)CCCCCC)C(=O)OC1CCOCC1` [Example 73, (R)-4-(octan-2-yl) 1-(tetrahydro-2H-pyran-4-yl) 2-methylenesuccinate], the figures for the IC50 in experiment [1] and in experiment [2] were 23.5 µM and 24.1 µM, respectively.

Regarding `C=C(CC(=O)O[C@H](C)CCCCCC)C(=O)OCCS(C)(=O)=O` [Example 55, (R)-1-(2-(methylsulfonyl)ethyl) 4-(octan-2-yl) 2-methylenesuccinate], the values for the IC50 in experiment [1] and in experiment [2] were 3.8 µM and 5.1 µM, respectively.

As to `C=C(CC(=O)OCC1CCC(F)(F)CC1)C(=O)OCC(=O)O` [Example 113, 2-((4-((4,4-difluorocyclohexyl)methoxy)-2-methylene-4-oxobutanoyl)oxy)acetic Acid], the figures for the half-maximal inhibitory concentration (IC50) in experiment [1] and in experiment [2] were 48.5 µM and 100 µM, respectively.

For `C=C(CC(=O)OCCCCCCCC)C(=O)OCCN1CCOCC1` [Example 35, 1-(2-morpholinoethyl) 4-octyl 2-methylenesuccinate], the IC50 stood at 3.7 µM in experiment [1] and 6.7 µM in experiment [2].

For the compound `C=C(C(=O)O[C@H]1CCOC1)C(C)C(=O)OCCCCCCCC` (stereo partly drawn) [Example 139, 1-octyl 4-((S)-tetrahydrofuran-3-yl) 2-methyl-3-methylenesuccinate], the IC50 turned out to be 15.1 µM in experiment [1] and 21.7 µM in experiment [2].

On to `C=C(CC(=O)OCCCCCCCC)C(=O)OCCNS(C)(=O)=O` [Example 53, 1-(2-(methylsulfonamido)ethyl) 4-octyl 2-methylenesuccinate], for which the IC50 came out at 5.4 µM in experiment [1] and 9.3 µM in experiment [2].

For `C=C(CC(=O)OCCCCCC)C(=O)OCC(=O)NS(C)(=O)=O` [Example 119, 4-hexyl 1-(2-(methylsulfonamido)-2-oxoethyl) 2-methylenesuccinate], the results for the half-maximal inhibitory concentration (IC50) in experiment [1] and in experiment [2] were 47.5 µM and 82.4 µM, respectively.

For `C=C(CC(=O)OC1CCCCCCC1)C(=O)OC(C)CS(C)(=O)=O` (stereo not shown) [Example 62, 4-cyclooctyl 1-(1-(methylsulfonyl)propan-2-yl) 2-methylenesuccinate], the 50% inhibitory concentration (IC50) was 2.8 µM in experiment [1] and 3.5 µM in experiment [2].

Turning to `C=C(CC(=O)OCCCCCCCC)C(=O)OCCN1CCN(C)CC1` [Example 51, 1-(2-(4-methylpiperazin-1-yl)ethyl) 4-octyl 2-methylenesuccinate], the IC50 in experiment [1] was 4 µM; in experiment [2], 7.3 µM.

With `C=C(CC(=O)OCCCCCCCC)C(=O)OCC(C)(C)OC` [Example 34, 1-(2-methoxy-2-methylpropyl) 4-octyl 2-methylenesuccinate], the IC50 in experiment [1] came out at 16.1 µM; in experiment [2], 31.8 µM.

For `C=C(CC(=O)OC1CCCCCCC1)C(=O)OC1CN(C(C)=O)C1` [Example 63, 1-(1-acetylazetidin-3-yl) 4-cyclooctyl 2-methylenesuccinate], the IC50 worked out at 2.5 µM in experiment [1] and 1.3 µM in experiment [2].

As for `C=C(C(=O)OCCS(C)(=O)=O)C(C)C(=O)OCCCCCCCC` (stereo not shown) [Example 138, 4-(2-(methylsulfonyl)ethyl) 1-octyl 2-methyl-3-methylenesuccinate], the half-maximal inhibitory concentration (IC50) in experiment [1] was 5.2 µM; in experiment [2] it was 6.8 µM.

As to `C=C(CC(=O)OC)C(=O)OC1COC1` [Example 15, 4-methyl 1-(oxetan-3-yl) 2-methylenesuccinate], the half-inhibitory concentration (IC50) was determined as 8.9 µM in experiment [1] and 15.4 µM in experiment [2].

Take `C=C(CC(=O)O[C@H](C)CCCCCC)C(=O)OC(C)CS(C)(=O)=O` (stereo partly drawn) [Example 56, 1-(1-(methylsulfonyl)propan-2-yl) 4-((R)-octan-2-yl) 2-methylenesuccinate]: the IC50 stood at 3.5 µM in experiment [1] and 7.9 µM in experiment [2].

As for `C=C(CC(=O)O[C@@H](C)CCCCCC)C(=O)OC1CN(C(C)=O)C1` [Example 66, (S)-1-(1-acetylazetidin-3-yl) 4-(octan-2-yl) 2-methylenesuccinate], the IC50 in experiment [1] came to 2.5 µM; in experiment [2], 2.3 µM.

For the compound `C=C(CC(=O)OCCCCCCCC)C(=O)OC(C)COC` (stereo not shown) [Example 31, 1-(1-methoxypropan-2-yl) 4-octyl 2-methylenesuccinate], the results for the IC50 in experiment [1] and in experiment [2] were 15.5 µM and 12.9 µM, respectively.
